The source of these data is patent publication US10988466B2, “Heterocyclic derivatives useful as SHP2 inhibitors” (Jacobio Pharmaceuticals Co., Ltd., priority 2017, dated 2021).

SMILES strings stand for the structures.
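Note: compounds preincubated 30 min at room temperature in the assay mixture, activity referenced to a 0.5% (v/v) DMSO control taken as 100%, run in triplicate.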

In this assay the target is T1, SHP2 (Homo sapiens, UniProt Q06124).
T1 sequence (Q06124 1-593): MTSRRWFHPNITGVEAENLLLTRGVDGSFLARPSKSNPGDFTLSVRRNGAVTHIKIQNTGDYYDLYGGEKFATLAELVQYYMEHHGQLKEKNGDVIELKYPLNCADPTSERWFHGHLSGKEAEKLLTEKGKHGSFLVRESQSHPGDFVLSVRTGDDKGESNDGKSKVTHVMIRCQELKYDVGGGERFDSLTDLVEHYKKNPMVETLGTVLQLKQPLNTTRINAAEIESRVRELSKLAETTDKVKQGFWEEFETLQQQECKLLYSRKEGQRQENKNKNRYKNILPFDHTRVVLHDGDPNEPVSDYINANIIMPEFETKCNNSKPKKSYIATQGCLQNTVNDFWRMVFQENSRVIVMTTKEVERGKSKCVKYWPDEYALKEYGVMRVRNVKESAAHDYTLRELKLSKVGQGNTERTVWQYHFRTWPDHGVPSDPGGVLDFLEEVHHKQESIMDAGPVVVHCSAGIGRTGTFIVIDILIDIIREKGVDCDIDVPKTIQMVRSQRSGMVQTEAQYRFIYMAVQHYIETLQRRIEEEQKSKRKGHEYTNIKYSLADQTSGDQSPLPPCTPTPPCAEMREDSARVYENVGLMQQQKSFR
Description: biochemical. The conditions noted are these: read-out: SHP2 inhibition (%)@0.1 μM.
For orientation: inhibition means the drop in the measured response relative to a control, in per cent. Consider `Nc1nc(N2CCC3(CC2)Cc2cc(Br)ccc2[C@H]3N)cnc1Sc1ccnc(N)c1Cl` [Example 47, (S)-1′-(6-amino-5-((2-amino-3-chloropyridin-4-yl)thio)pyrazin-2-yl)-5-bromo-1,3-dihydro-spiro[indene-2,4′-piperidin]-1-amine], for which the inhibition at 0.1 µM stood at 81%. The value for `Nc1nccc(Sc2cnc(N3CCC4(CC3)Cc3ccccc3[C@H]4N)cn2)c1Cl` [Example 48, (S)-1′-(5-((2-amino-3-chloropyridin-4-yl)thio)pyrazin-2-yl)-1,3-dihydro-spiro[indene-2,4′-piperidin]-1-amine] was 81%. The result for `CN(C)c1nccc(Sc2cnc(N3CCC4(CC3)Cc3ccccc3[C@H]4N)cn2)c1Cl` [Example 49, (S)-1′-(5-((3-chloro-2-(dimethylamino)pyridin-4-yl)thio)pyrazin-2-yl)-1,3-dihydrospiro[indene-2,4′-piperidin]-1-amine] reads 85%; that for `Nc1cccc(Sc2cnc(N3CCC4(CC3)Cc3ccccc3[C@H]4N)cn2)c1Cl` [Example 50, (S)-1′-(5-((3-amino-2-chlorophenyl)thio)pyrazin-2-yl)-1,3-dihydrospiro [indene-2,4′-piperidin]-1-amine], 77%. The result for `COc1nccc(Sc2cnc(N3CCC4(CC3)Cc3ccccc3[C@H]4N)cn2)c1Cl` [Example 51, (S)-1′-(5-((3-chloro-2-methoxypyridin-4-yl)thio)pyrazin-2-yl)-1,3-dihydro-spiro[indene-2,4′-piperidin]-1-amine] reads 85%; that for `Nc1cccc(Sc2ncc(N3CCC4(CC3)Cc3ccccc3[C@H]4N)nc2N)c1Cl` [Example 53, (S)-1′-(6-amino-5-((3-amino-2-chlorophenyl)thio)pyrazin-2-yl)-1,3-dihydro spiro[2,4′-piperidin]-1-amine], 84%.

Regarding `COc1nccc(Sc2ncc(N3CCC4(CC3)Cc3ccccc3[C@H]4N)nc2N)c1Cl` [Example 54, (S)-1′-(6-amino-5-((3-chloro-2-methoxypyridin-4-yl)thio)pyrazin-2-yl)-1,3-dihydrospiro [indene-2,4′-piperidin]-1-amine], the inhibition at 0.1 µM was 69%. Turning to `Nc1nc(N2CCC3(CC2)Cc2ccc(C(=O)N4CCCCC4)cc2[C@H]3N)cnc1Sc1ccnc(N)c1Cl` [Example 59, (S)-(1-amino-1′-(6-amino-5-((2-amino-3-chloropyridin-4-yl)thio)pyrazin-2-yl)-1,3-dihydrospiro [indene-2,4′-piperidin]-6-yl)(piperidin-1-yl)methanone], the inhibition at 0.1 µM stood at 69%.

Take `Nc1nc(N2CCC3(CC2)Cc2ccc(N4CCOCC4)cc2[C@H]3N)cnc1Sc1ccnc(N)c1Cl` [Example 60, (S)-1′-(6-amino-5-((2-amino-3-chloropyridin-4-yl)thio)pyrazin-2-yl)-6-morpholino-1,3-dihydro-spiro[indene-2,4′-piperidin]-1-amine]: the inhibition at 0.1 µM was determined as 70%. The value for `Nc1nc(N2CCC3(CC2)Cc2cc(F)c(F)c(F)c2[C@H]3N)cnc1Sc1ccnc(N)c1Cl` [Example 61, (S)-1′-(6-amino-5-((2-amino-3-choropyridin-4-yl)thio)pyrazin-2-yl)-5,6,7-trifluoro-1,3-dihydro-spiro[indene-2,4′-piperidin]-1-amine] was 74%; that for `Nc1nc(N2CCC3(CC2)Cc2ccc(N4CCOCC4=O)cc2[C@H]3N)cnc1Sc1ccnc(N)c1Cl` [Example 62, (S)-4-(1-amino-1′-(6-amino-5-((2-amino-3-chloropyridin-4-yl)thio)pyrazin-2-yl)-1,3-dihydrospiro [indene-2,4′-piperidin]-6-yl) morpholin-3-one] was 76%. The result for `CS(=O)(=O)Nc1ccc2c(c1)[C@@H](N)C1(CCN(c3cnc(Sc4ccnc(N)c4Cl)c(N)n3)CC1)C2` [Example 63, (S)-N-(1-amino-1′-(6-amino-5-((2-amino-3-chloropyridin-4-yl)thio)pyrazin-2-yl)-1,3-dihydrospiro [indene-2,4′-piperidin]-6-yl)methane-sulfonamide] reads 93%. For `Nc1nc(N2CCC3(CC2)Cc2cnccc2[C@@H]3N)cnc1Sc1ccnc(N)c1Cl` [Example 65, (R)-1′-(6-amino-5-((2-amino-3-chloropyridin-4-yl)thio)pyrazin-2-yl)-5,7-dihydrospiro[cyclopenta [c]pyridine-6,4′-piperidin]-5-amine], the inhibition at 0.1 µM is 0%. The result for `Nc1nc(N2CCC3(CC2)Cc2ccccc2[C@H]3N)cnc1Sc1ccnc(Cl)c1Cl` [Example 66, (S)-1′-(6-amino-5-((2,3-dichloropyridin-4-yl)thio)pyrazin-2-yl)-1,3-dihydro-spiro[indene-2,4′-piperidin]-1-amine] reads 72%; that for `Nc1nc(N2CCC3(CC2)[C@H](N)c2ccccc2[C@H]3N)cnc1Sc1ccnc(N)c1Cl` [Example 67, (1R,3R)-1′-(6-amino-5-((2-amino-3-chloropyridin-4-yl)thio)pyrazin-2-yl)-1,3-dihydrospiro[indene-2,4′-piperidine]-1,3-diamine], 63%. The result for `Nc1nc(N2CCC3(CC2)Cn2c(cccc2=O)[C@H]3N)cnc1Sc1ccnc(N)c1Cl` [Example 70, (S)-1-amino-1′-(6-amino-5-((2-amino-3-chloropyridin-4-yl)thio)pyrazin-2-yl)-3H-spiro[indolizine-2,4′-piperidin]-5(1H)-one] reads 30%. The result for `Nc1nc(N2CCC3(CC2)c2cccnc2C[C@H]3N)cnc1Sc1ccnc(N)c1Cl` [Example 72, (R)-1′-(6-amino-5-((2-amino-3-chloropyridin-4-yl)thio)pyrazin-2-yl)-6,7-dihydrospiro[cyclopenta [b]pyridine-5,4′-piperidin]-6-amine] reads 28%; that for `Nc1nc(N2CCC3(CC2)Cc2ncc(Cl)cc2[C@H]3N)cnc1Sc1ccnc(N)c1Cl` [Example 73, (S)-1′-(6-amino-5-((2-amino-3-chloropyridin-4-yl)thio)pyrazin-2-yl)-3-chloro-5,7-dihydro-spiro[cyclopenta[b]pyridine-6,4′-piperidin]-5-amine], 80%; that for `CSc1ccc2c(c1)[C@@H](N)C1(CCN(c3cnc(Sc4ccnc(N)c4Cl)c(N)n3)CC1)C2` [Example 74, (S)-1′-(6-amino-5-((2-amino-3-chloropyridin-4-yl)thio)pyrazin-2-yl)-6-(methylthio)-1,3-dihydro-spiro[indene-2,4′-piperidin]-1-amine], 76%.

In the case of `CN1CCN(c2ccc3c(c2)[C@@H](N)C2(CCN(c4cnc(Sc5ccnc(N)c5Cl)c(N)n4)CC2)C3)CC1` [Example 75, (S)-1′-(6-amino-5-((2-amino-3-chloropyridin-4-yl)thio)pyrazin-2-yl)-6-(4-methylpiperazin-1-yl)-1,3-dihydrospiro [indene-2,4′-piperidin]-1-amine], the inhibition at 0.1 µM is 16%. Regarding `CC(=O)N1CC(F)(F)c2c(Sc3ncc(N4CCC5(CC4)Cc4ccccc4[C@H]5N)nc3N)cccc21` [Example 78, (S)-1-(4-((3-amino-5-(1-amino-1,3-dihydrospiro[indene-2,4′-piperidin]-1′-yl)pyrazin-2-yl)thio)-3,3-difluoroindolin-1-yl)ethan-1-one], the inhibition at 0.1 µM was 67%. The result for `CC(C)(C)c1cc2c(s1)CC1(CCN(c3cnc(Sc4ccnc(N)c4Cl)c(N)n3)CC1)[C@@H]2N` [Example 79, (S)-1′-(6-amino-5-((2-amino-3-chloropyridin-4-yl)thio)pyrazin-2-yl)-2-(tert-butyl)-4,6-dihydro-spiro[cyclopenta [b]thiophene-5,4′-piperidin]-4-amine] reads 58%; that for `Nc1nc(N2CCC3(CC2)Cc2ccc(C(=O)O)cc2[C@H]3N)cnc1Sc1ccnc(N)c1Cl` [Example 80, (S)-1-amino-1′-(6-amino-5-((2-amino-3-chloropyridin-4-yl)thio)pyrazin-2-yl)-1,3-dihydrospiro [indene-2,4′-piperidine]-6-carboxylic acid], 75%. The result for `CCOP(=O)(OCC)c1ccc2c(c1)[C@@H](N)C1(CCN(c3cnc(Sc4ccnc(N)c4Cl)c(N)n3)CC1)C2` [Example 90, diethyl (S)-(1-amino-1′-(6-amino-5-((2-amino-3-chloropyridin-4-yl)thio)pyrazin-2-yl)-1,3-dihydrospiro [indene-2,4′-piperidin]-6-yl) phosphonate] reads 71%; that for `Nc1nc(N2CCC3(CC2)Oc2ncccc2[C@H]3N)cnc1Sc1ccnc(N)c1Cl` [Example 96], 66%. The result for `Nc1cccc(Sc2cnc(N3CCC4(CC3)Cc3ncccc3[C@H]4N)cn2)c1Cl` [Example 97, (S)-1′-(5-((3-amino-2-chlorophenyl)thio)pyrazin-2-yl)-5,7-dihydro-spiro[cyclopenta [b]pyridine-6,4′-piperidin]-5-amine] reads 86%. `Nc1cccc(Sc2ncc(N3CCC4(CC3)Cc3ncccc3[C@H]4N)nc2N)c1Cl` [Example 98, (S)-1′-(6-amino-5-((3-amino-2-chlorophenyl)thio)pyrazin-2-yl)-5,7-dihydrospiro [cyclopenta[b]pyridine-6,4′-piperidin]-5-amine]: the inhibition at 0.1 µM was found to be 81%.
